Results: JPH09183729A, “凍結乾燥ウラシルを含有する抗腫瘍医薬組成物” (priority 1995, dated 1997)
≈ marks a conversion by molar mass, not a printed value.

What was measured:
[1] = FT compared with 5-FU; UFT compared with 5-FU, FT and other antitumour drugs; cited from earlier work
[2] = cited from earlier work
physchem = details: water, saturated solution concentration in water

solubility (physchem) | SMILES | toxicity / side effects [1] | solubility in water ([2]; 25℃ water, Merck Index) | solubility in alcohol and ether ([2]; alcohol and ether) | solubility in cold water ([2]; cold water)
– | O=c1[nH]cc(F)c(=O)[nH]1 [5-FU, 5-fluorouracil] | 骨髄機能抑制などの重篤な副作用があり | – | – | –
~14.7 mg/mL (≈ 131 mM) | O=c1cc[nH]c(=O)[nH]1 [ウラシル] | – | 0.358 g/100g | 難溶 | わずかに溶け
